These results are taken from patent US20170226120A1, “INHIBITORS OF HIF PROLYL HYDROXYLASE” (MERCK SHARP & DOHME CORP., priority 2014, published 2017).

As a reminder, the IC50 is the midpoint of a concentration-inhibition curve. Low values mean greater potency in that assay, high ones weaker potency in that assay.

Series [1] can be described thus: Tissue PK profile in rat (liver and plasma drug level). In kind it is in vivo. Conditions: 10 mg/kg; for concentration at 4 h: in vivo, po; for Kp at 4 h: liver/plasma, 4 hours after PO dosing at 10 mpk, vehicle 0.5% MC, read-out: liver/plasma ratio. Here is the method: The tissue PK profile of compounds described in this application were evaluated in rat. The tissue was harvested 4 hours after PO dosing at 10 mpk (vehicle: 0.5% MC; dose volume: 5 mL/Kg) and the drug level was determined. Shown in Table 1 are compound concentrations of selected examples in rat liver and plasma, as well as liver to plasma drug ratio.

A further series has as its target T1, human HIF-PHD2 (Homo sapiens, UniProt Q9GZT9).
T1 construct: FLAG-tagged full length PHD2 expressed in and purified from baculovirus-infected Sf9 cells; FLAG; made in house; host or cells: baculovirus-infected Sf9 cells
Kind of series: HIF-PHD2 inhibition, time resolved fluorescence assay of HIF-1α peptide hydroxylation. Format: biochemical. To be noted: FLAG-tagged full length PHD2; 0.2 μM 2-oxoglutarate, 0.5 μM HIF-1α peptide. Here is the method: To each well of a 384-well plate, 1 μL of test compounds in DMSO (final concentration ranging from 0.3 nM to 10 uM) were added into 20 μl of assay buffer (50 mM Tris pH 7.4/0.01% Tween-20/0.1 mg/ml bovine serum albumin/10 μM ferrous sulfate/1 mM sodium ascorbate/20 μg/ml catalase) containing 0.15 μg/ml FLAG-tagged full length PHD2 expressed in and purified from baculovirus-infected Sf9 cells. After a 5 min preincubation at room temperature, the enzymatic reactions were initiated by the addition of 4 μL of substrates {final concentrations of 0.2 μM 2-oxoglutarate and 0.5 μM HIF-1α peptide biotinyl-[…] […] After incubation for 45 minutes at room temperature, the reactions were terminated by the addition of a 25 μL quench/detection mix to a final concentration of 1 mM ortho-phenanthroline, 0.1 mM EDTA, 0.5 nM anti-(His)6 LANCE reagent (Perkin-Elmer Life Sciences), 100 nM AF647-labeled streptavidin (Invitrogen), and 2 μg/ml (His)6-VHL complex {S. Tan Protein Expr. Purif.

T1 sequence (Q9GZT9 whole entry): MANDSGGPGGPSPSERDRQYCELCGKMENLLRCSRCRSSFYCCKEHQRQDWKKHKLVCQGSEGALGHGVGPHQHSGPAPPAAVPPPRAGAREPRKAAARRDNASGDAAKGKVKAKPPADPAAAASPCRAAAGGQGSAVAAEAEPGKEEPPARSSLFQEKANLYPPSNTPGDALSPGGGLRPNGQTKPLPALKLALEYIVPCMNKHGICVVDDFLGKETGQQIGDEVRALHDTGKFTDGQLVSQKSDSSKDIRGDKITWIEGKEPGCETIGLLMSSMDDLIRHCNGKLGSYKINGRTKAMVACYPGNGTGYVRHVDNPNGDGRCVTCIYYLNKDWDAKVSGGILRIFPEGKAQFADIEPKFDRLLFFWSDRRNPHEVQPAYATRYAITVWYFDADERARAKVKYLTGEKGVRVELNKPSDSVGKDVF

On to `O=C(O)CNC(=O)c1c(O)c2c(n(Cc3cnc(C(F)(F)F)cn3)c1=O)COC2` [Example 11, 2-(4-hydroxy-2-oxo-1-((5-(trifluoromethyl)pyrazin-2-yl)methyl)-1,2,5,7-tetrahydrofuro[3,4-b]pyridine-3-carboxamido)acetic acid], for which the concentration at 4 h in series [1] (liver concentration) was found to be 7900 nM; in series [1] (plasma concentration), 22 nM. Further, in series [1], the Kp at 4 h amounted to 359.
Consider `O=C(O)CNC(=O)c1c(O)c2c(n(Cc3cnc(C(F)(F)F)nc3)c1=O)COC2` [Example 12, 2-(4-hydroxy-2-oxo-1-((2-(trifluoromethyl)pyrimidin-5-yl)methyl)-1,2,5,7-tctrahydrofuro[3,4-b]pyridine-3-carboxamido)acetic acid], for which the concentration at 4 h worked out at 775 nM in series [1] (liver concentration) and 12.3 nM in series [1] (plasma concentration). Moreover, in series [1], the Kp at 4 h amounted to 67.3.
Turning to `O=C(O)CNC(=O)c1c(O)c2c(n(Cc3ccn(-c4ccccc4)n3)c1=O)COC2` [Example 22, 2-(4-hydroxy-2-oxo-1-((1-phenyl-1H-pyrazol-3-yl)methyl)-1,2,5,7-tetrahydrofuro[3,4-b]pyridine-3-carboxamido)acetic acid], the concentration at 4 h in series [1] (liver concentration) turned out to be 816 nM; in series [1] (plasma concentration), 11.8 nM. The Kp at 4 h in series [1] worked out at 66.6.
On human HIF-PHD2, `O=C(O)CNC(=O)c1c(O)c2c(n(Cc3ccccc3)c1=O)COC2` [Example 25, 2-(1-benzyl-4-hydroxy-2-oxo-1,2,5,7-tetrahydrofuro[3,4-b]pyridine-3-carboxamido)acetic acid] showed an IC50 of 9.2 nM.
The same measure, in the same setting: in the case of `CC(C)c1ccc(Cn2c3c(c(O)c(C(=O)NCC(=O)O)c2=O)COC3)cc1` [Example 29, 2-(4-hydroxy-1-(4-isopropylbenzyl)-2-oxo-1,2,5,7-tetrahydrofuro[3,4-b]pyridine-3-carboxamido)acetic acid] it was 2.9 nM; in that of `O=C(O)CNC(=O)c1c(O)c2c(n(Cc3ccccc3C(=O)O)c1=O)COC2` [Example 58, 2-((3-((carboxymethyl)carbamoyl)-4-hydroxy-2-oxofuro[3,4-b]pyridin-1(2H,5H,7H)-yl)methyl)benzoic acid], 17.4 nM.
As for `O=C(O)CNC(=O)c1c(O)c2c(n(Cc3ccc4[nH]cnc4c3)c1=O)COC2` [Example 65, 2-(1-((1H-Benzo[d]imidazol-5-yl)methyl)-4-hydroxy-2-oxo-1,2,5,7-tetrahydrofuro[3,4-b]pyridine-3-carboxamido)acetic acid], 11.8 nM corresponded to half-maximal inhibition against human HIF-PHD2 (IC50). This IC50 and that of the compound before are within 1.5-fold of each other.
Same read-out and setting: in the case of `O=C(O)CNC(=O)c1c(O)c2c(n(Cc3cnco3)c1=O)COC2` [Example 20, 2-(4-hydroxy-1-(oxazol-5-ylmethyl)-2-oxo-1,2,5,7-tetrahydrofuro[3,4-b]pyridine-3-carboxamido)acetic acid] it was 7.4 nM.
Regarding `O=C(O)CNC(=O)c1c(O)c2c(n(Cc3ccc(C(F)(F)F)c(Br)c3)c1=O)COC2` [Example 45, 2-(1-(3-bromo-4-(trifluoromethyl)benzyl)-4-hydroxy-2-oxo-1,2,5,7-tetrahydrofuro[3,4-b]pyridine-3-carboxamido)acetic acid], at human HIF-PHD2, half-maximal inhibition (IC50) was put at 3.3 nM.
Same read-out and setting: under `N#Cc1cccc(Cn2c3c(c(O)c(C(=O)NCC(=O)O)c2=O)COC3)c1` [Example 34, 2-(1-(3-cyanobenzyl)-4-hydroxy-2-oxo-1,2,5,7-tetrahydrofuro[3,4-b]pyridine-3-carboxamido)acetic acid] stands 2.5 nM; under `C=Cc1ccc(Cn2c3c(c(O)c(C(=O)NCC(=O)O)c2=O)COC3)cn1` [Example 62, 2-(4-Hydroxy-2-oxo-1-((6-vinylpyridin-3-yl)methyl)-1,2,5,7-tetrahydrofuro[3,4-b]pyridine-3-carboxamido)acetic acid], 3.7 nM.
On the same count and under the same terms, under `O=C(O)CNC(=O)c1c(O)c2c(n(Cc3cncc(F)c3)c1=O)COC2` [Example 10, 2-(1-((5-fluoropyridin-3-yl)methyl)-4-hydroxy-2-oxo-1,2,5,7-tetrdhydrofuro[3,4-b]pyridine-3-carboxamido)acetic acid] stands 5.7 nM; under `O=C(O)CNC(=O)c1c(O)c2c(n(Cc3ccccn3)c1=O)COC2` [Example 36, 2-((3-((carboxymethyl)carbamoyl)-4-hydroxy-2-oxofuro[3,4-b]pyridin-1(2H,5H,7H)-yl)methyl)pyridin-1-ium chloride], 4.8 nM; under `COC(=O)c1cccc(Cn2c3c(c(O)c(C(=O)NCC(=O)O)c2=O)COC3)c1` [Example 40, 2-(4-hydroxy-1-(3-(methoxycarbonyl)benzyl)-2-oxo-1,2,5,7-tetrahydrofuro[3,4-b]pyridine-3-carboxamido)acetic acid], 8.1 nM.
`O=C(O)CNC(=O)c1c(O)c2c(n(Cc3nc4ccccc4o3)c1=O)COC2` [Example 46, 2-(1-(benzo[d]oxazol-2-ylmethyl)-4-hydroxy-2-oxo-1,2,5,7-tetrahydrofuro[3,4-b]pyridine-3-carboxamido)acetic acid]: the concentration at 4 h was 2070 nM in series [1] (liver concentration) and 34.5 nM in series [1] (plasma concentration). Further, in series [1], the Kp at 4 h was 55.
For the compound `O=C(O)CNC(=O)c1c(O)c2c(n(Cc3ccc4ccccc4c3)c1=O)COC2` [Example 47, 2-(4-hydroxy-1-(naphthalen-2-ylmethyl)-2-oxo-1,2,5,7-tetrahydrofuro[3,4-b]pyridine-3-carboxamido)acetic acid], half-maximal inhibition on human HIF-PHD2 (IC50) required 6.8 nM.
For `CNC(=O)c1ccc(Cn2c3c(c(O)c(C(=O)NCC(=O)O)c2=O)COC3)cc1` [Example 23, 2-(4-hydroxy-1-(4-(methylcarbamoyl)benzyl)-2-oxo-1,2,5,7-tetrahydrofuro[3,4-b]pyridine-3-carboxamido)acetic acid], the IC50 against human HIF-PHD2 stood at 10 nM.
On the same count and under the same terms, under `CCn1c2c(c(O)c(C(=O)NCC(=O)O)c1=O)COC2` [Example 54, 2-(1-ethyl-4-hydroxy-2-oxo-1,2,5,7-tetrahydrofuro[3,4-b]pyridine-3-carboxamido)acetic acid] stands 17.4 nM; under `COC(=O)c1ccccc1Cn1c2c(c(O)c(C(=O)NCC(=O)O)c1=O)COC2` [Example 39, 2-(4-hydroxy-1-(2-(methoxycarbonyl)benzyl)-2-oxo-1,2,5,7-tetrahydrofuro[3,4-b]pyridine-3-carboxamido)acetic acid], 19.7 nM.
Regarding `Cc1cc(Cn2c3c(c(O)c(C(=O)NCC(=O)O)c2=O)COC3)ccc1Cl` [Example 50, 2-(1-(4-chloro-3-methylbenzyl)-4-hydroxy-2-oxo-1,2,5,7-tetrahydrofuro[3,4-b]pyridine-3-carboxamido)acetic acid], the half-maximal inhibitory concentration (IC50) on human HIF-PHD2 came out at 5 nM.
The same measure, in the same setting: in the case of `Cc1ncsc1Cn1c2c(c(O)c(C(=O)NCC(=O)O)c1=O)COC2` [Example 8, 2-(4-hydroxy-1-((4-methylthiazol-5-yl)methyl)-2-oxo-1,2,5,7-tetrahydrofuro[3,4-b]pyridine-3-carboxamido)acetic acid] it was 5.2 nM.
Turning to `O=C(O)CNC(=O)c1c(O)c2c(n(Cc3cccnc3)c1=O)COC2` [Example 37, 3-((3-((carboxymethyl)carbamoyl)-4-hydroxy-2-oxofuro[3,4-b]pyridin-1(2H,5H,7H)-yl)methyl)pyridin-1-ium chloride], on human HIF-PHD2, the midpoint of inhibition, the IC50, lay at 3.3 nM.
On the same count and under the same terms, in the case of `Cc1cc(C(=O)O)ccc1-c1ccc(Cn2c3c(c(O)c(C(=O)NCC(=O)O)c2=O)COC3)cc1` [Example 64, 4′-((3-((Carboxymethyl)carbamoyl)-4-hydroxy-2-oxofuro[3,4-b]pyridin-1(2H,5H,7H)-yl)methyl)-2-methyl-[1,1′-biphenyl]-4-carboxylic acid] it was 1.2 nM.
Still for that read-out and setting: under `NC(=O)c1ccc(Cn2c3c(c(O)c(C(=O)NCC(=O)O)c2=O)COC3)cc1` [Example 60, 2-(1-(4-Carbamoylbenzyl)-4-hydroxy-2-oxo-1,2,5,7-tetrahydrofuro[3,4-b]pyridine-3-carboxamido)acetic acid] stands 4.3 nM; under `O=C(N[C@H](CO)C(=O)O)c1c(O)c2c(n(Cc3ccc(C(F)(F)F)cc3)c1=O)COC2` [Example 1, (R)-3-Hydroxy-2-(4-hydroxy-2-oxo-1-(4-(trifluoromethyl)benzyl)-1,2,5,7-tetrahydrofuro[3,4-b]pyridine-3-carboxamido)propanoic acid], 59.7 nM.
Still for that read-out and setting: under `N#Cc1ccc(Cn2c3c(c(O)c(C(=O)NCC(=O)O)c2=O)COC3)cc1F` [Example 53, 2-(1-(4-cyano-3-fluorobenzyl)-4-hydroxy-2-oxo-1,2,5,7-tetrahydrofuro[3,4-b]pyridine-3-carboxamido)acetic acid] stands 7.1 nM; under `O=C(N[C@@H](CO)C(=O)O)c1c(O)c2c(n(Cc3ccc(C(F)(F)F)cc3)c1=O)COC2` [Example 2, (S)-3-hydroxy-2-(4-hydroxy-2-oxo-1-(4-(trifluoromethyl)benzyl)-1,2,5,7-tetrahydrofuro[3,4-b]pyridine-3-carboxamido)propanoic acid], 109 nM.
